# Test results from US20130065818A1, “Arylamide Compounds And Compositions And Uses Thereof” (POLYMEDIX, priority 2006, published 2013).
# Read-outs that look alike come from different tables or passages of the source.
# Legend:
# [1] = tested on: Staphylococcus aureus fluoroquinolone-resistant; experiment: MIC, 25 ocular isolates, broth microdilution (Example 8); assay type: cell-based
# Procedure: (§1) • Mueller-Hinton Broth in tubes was inoculated with 25 ocular isolates of Staphylococcus aureus fluoroquinolone-susceptible, Staphylococcus aureus fluoroquinolone-resistant, Staphylococcus epidermidis (Coagulase-negative Staphylococcus) fluoroquinolone-susceptible, Staphylococcus epidermidis (Coagulase-negative Staphylococcus) fluoroquinolone-resistant, Pseudomonas aeruginosa and Serratia marcescens, plus two controls (Staphylococcus aureus and E. coli) and incubated at 37° C. overnight on a shaker set at 250 rpm.
# (§2) On the day of testing, a 640 μg/ml (1280 μg/ml for Serratia marcescens and Pseudomonas aeruginosa) concentration was prepared from a 1% stock solution in 0.01% acetic acid, 0.2% BSA in polypropylene tubes.
# (§3) Serial doubling dilutions in 0.01% acetic acid, 0.2% BSA in 96 well polypropylene plates, which are used as reservoirs for the inoculation of the test plates, were carried out to obtain serial dilutions of test agents at 10 times the required test concentrations: 640, 320, 160, 80, 40, 20, 10, 5, 2.5, 1.25, and 0.625 μg/ml (1280, 640, 320, 160, 80, 40, 20, 10, 5, 2.5, and 1.25 μg/ml for Serratia marcescens and Pseudomonas aeruginosa).
# (§4) Ten μl of diluted 10×test agents was added to each well of one row of the 96 well polypropylene plates from column 2 to column 12 (column 1 is a control for bacteria alone, with no peptide). Test agent concentrations in columns 2-12 were as follows: 64, 32, 16, 8, 4, 2, 1, 0.5, 0.25, 0.125, and 0.0625 μg/ml (128, 64, 32, 16, 8, 4, 2, 1, 0.5, 0.25, and 0.125 μg/ml for Serratia marcescens and Pseudomonas aeruginosa). The same peptide was in each of the 8 rows. One plate contained dilutions of one test agent and 8 bacterial isolates.
# (§5) On the day of testing, the overnight bacterial broth cultures of Staphylococcus aureus fluoroquinolone-susceptible, Staphylococcus aureus fluoroquinolone-resistant, Staphylococcus epidermidis (Coagulase-negative Staphylococcus) fluoroquinolone-susceptible, Staphylococcus epidermidis (Coagulase-negative Staphylococcus) fluoroquinolone-resistant, Serratia marcescens, and Pseudomonas aeruginosa, plus two controls (Staphylococcus aureus and E. coli) were diluted in 5 ml of trypticase soy broth to yield turbidity equal to a 0.5 McFarland standard. The final inoculum for MIC testing for Staphylococcus aureus fluoroquinolone-susceptible, Staphylococcus aureus fluoroquinolone-resistant, Staphylococcus epidermidis (Coagulase-negative Staphylococcus) fluoroquinolone-susceptible, Staphylococcus epidermidis (Coagulase-negative Staphylococcus) fluoroquinolone-resistant, Serratia marcescens, and Pseudomonas aeruginosa was achieved by placing 0.05 ml of the turbidity adjusted sample to 5 ml of Mueller-Hinton broth.
# (§6) Ninety μl of the bacterial suspensions was dispensed in each well from column 1 to column 12. Each bacterial isolate was placed in one row of a 96 well polypropylene plate containing the test agents. The plates were placed on shaker at 15 minutes at room temperature, and then incubated at 37° C. overnight. MICs were determined visually as the lowest concentration of drug that inhibits visible bacterial growth.
# [2] = tested on: Staphylococcus epidermidis (Coagulase-negative Staphylococcus) fluoroquinolone-resistant; experiment: as above; assay type: cell-based
# Procedure: as §1, §2, §3, §4, §5, §6
structure (smiles),measurement,setting,value
N=C(N)NCCCCC(=O)Nc1cc(C(F)(F)F)cc(NC(=O)c2cnc(C(=O)Nc3cc(C(F)(F)F)cc(NC(=O)CCCCNC(=N)N)c3SCCN)cn2)c1SCCN [Oligomer 5],MIC50,"[1]; 25 isolates, Row 13",0.25 µg/mL
same,MIC90,"[1]; 25 isolates, Row 22",0.5 µg/mL
same,Range of MICs,"[1]; 25 isolates, Summary of Results",0.125 to 0.5 µg/mL
same,MIC,"[1]; Staphylococcus aureus, 25 ocular isolates, read-out: Median MIC",≤ 0.25 µg/mL
same,MIC,"[1]; Staphylococcus aureus, isolate 1—E504, read-out: MIC",0.5 µg/mL
same,MIC,"[1]; Staphylococcus aureus, isolate 2—E475, read-out: MIC",0.25 µg/mL
same,MIC,"[1]; Staphylococcus aureus, isolate 3—E442, read-out: MIC",0.25 µg/mL
same,MIC,"[1]; Staphylococcus aureus, isolate 4—E427, read-out: MIC",0.5 µg/mL
same,MIC,"[1]; Staphylococcus aureus, isolate 5—E425, read-out: MIC",0.25 µg/mL
same,MIC,"[1]; Staphylococcus aureus, isolate 6—E424, read-out: MIC",0.25 µg/mL
same,MIC,"[1]; Staphylococcus aureus, isolate 7—E417, read-out: MIC",0.25 µg/mL
same,MIC,"[1]; Staphylococcus aureus, isolate 8—E407, read-out: MIC",0.125 µg/mL
same,MIC,"[1]; Staphylococcus aureus, isolate 9—E401, read-out: MIC",0.25 µg/mL
same,MIC,"[1]; Staphylococcus aureus, isolate 10—K1659, read-out: MIC",0.25 µg/mL
same,MIC,"[1]; Staphylococcus aureus, isolate 11—E96, read-out: MIC",0.25 µg/mL
same,MIC,"[1]; Staphylococcus aureus, isolate 12—E379, read-out: MIC",0.5 µg/mL
same,MIC,"[1]; Staphylococcus aureus, isolate 13—E369, read-out: MIC",0.5 µg/mL
same,MIC,"[1]; Staphylococcus aureus, isolate 14—E361, read-out: MIC",0.25 µg/mL
same,MIC,"[1]; Staphylococcus aureus, isolate 15—E339, read-out: MIC",0.25 µg/mL
same,MIC,"[1]; Staphylococcus aureus, isolate 16—E333, read-out: MIC",0.125 µg/mL
same,MIC,"[1]; Staphylococcus aureus, isolate 17—E332, read-out: MIC",0.25 µg/mL
same,MIC,"[1]; Staphylococcus aureus, isolate 18—E327, read-out: MIC",0.25 µg/mL
same,MIC,"[1]; Staphylococcus aureus, isolate 19—E325, read-out: MIC",0.25 µg/mL
same,MIC,"[1]; Staphylococcus aureus, isolate 20—K950, read-out: MIC",0.25 µg/mL
same,MIC,"[1]; Staphylococcus aureus, isolate 21—K839, read-out: MIC",0.25 µg/mL
same,MIC,"[1]; Staphylococcus aureus, isolate 22—K1679, read-out: MIC",0.25 µg/mL
same,MIC,"[1]; Staphylococcus aureus, isolate 23—K1677, read-out: MIC",0.5 µg/mL
same,MIC,"[1]; Staphylococcus aureus, isolate 24—K1672, read-out: MIC",0.25 µg/mL
same,MIC,"[1]; Staphylococcus aureus, isolate 25—K1670, read-out: MIC",0.25 µg/mL
same,MIC,"[1]; Staphylococcus aureus, n=25 per group, read-out: Median MIC",0.25 µg/mL
same,MIC50,"[1]; Staphylococcus aureus, 25 isolates, Summary of Results, read-out: MIC50",0.25 µg/mL
same,MIC90,"[1]; Staphylococcus aureus, 25 isolates, Summary of Results, read-out: MIC90",0.5 µg/mL
same,MIC,"[1]; Staphylococcus aureus, 25 isolates, Summary of Results, read-out: Median MIC",0.25 µg/mL
same,MIC50,[1]; n=25 per group,0.25 µg/mL
same,MIC90,[1]; n=25 per group,0.5 µg/mL
same,Range of MICs,[1]; n=25 per group,0.125 to 0.5 µg/mL
same,MIC50,"[2]; 25 isolates, Row 13",0.125 µg/mL
same,MIC90,"[2]; 25 isolates, Row 22",0.25 µg/mL
same,Range of MICs,"[2]; 25 isolates, Summary of Results, <0.0625 was Replaced with 0.03125",0.03125 to 0.5 µg/mL
same,MIC,"[2]; Staphylococcus epidermidis, 25 ocular isolates, read-out: Median MIC",≤ 0.25 µg/mL
same,MIC,"[2]; Staphylococcus epidermidis, isolate 1—E515, read-out: MIC",0.125 µg/mL
same,MIC,"[2]; Staphylococcus epidermidis, isolate 2—E514, read-out: MIC",0.125 µg/mL
same,MIC,"[2]; Staphylococcus epidermidis, isolate 3—E513, read-out: MIC",0.125 µg/mL
same,MIC,"[2]; Staphylococcus epidermidis, isolate 4—E510, read-out: MIC",0.125 µg/mL
same,MIC,"[2]; Staphylococcus epidermidis, isolate 5—E509, read-out: MIC",0.125 µg/mL
same,MIC,"[2]; Staphylococcus epidermidis, isolate 6—E508, read-out: MIC",0.125 µg/mL
same,MIC,"[2]; Staphylococcus epidermidis, isolate 7—E505, read-out: MIC",0.125 µg/mL
same,MIC,"[2]; Staphylococcus epidermidis, isolate 8—E503, read-out: MIC",0.125 µg/mL
same,MIC,"[2]; Staphylococcus epidermidis, isolate 9—E502, read-out: MIC",0.25 µg/mL
same,MIC,"[2]; Staphylococcus epidermidis, isolate 10—E499, read-out: MIC",0.25 µg/mL
same,MIC,"[2]; Staphylococcus epidermidis, isolate 11—E498, read-out: MIC",0.125 µg/mL
same,MIC,"[2]; Staphylococcus epidermidis, isolate 12—E494, read-out: MIC",0.125 µg/mL
same,MIC,"[2]; Staphylococcus epidermidis, isolate 13—E493, read-out: MIC",0.125 µg/mL
same,MIC,"[2]; Staphylococcus epidermidis, isolate 14—E485, read-out: MIC",0.125 µg/mL
same,MIC,"[2]; Staphylococcus epidermidis, isolate 15—E487, read-out: MIC",< 0.0625 µg/mL
same,MIC,"[2]; Staphylococcus epidermidis, isolate 16—E486, read-out: MIC",0.125 µg/mL
same,MIC,"[2]; Staphylococcus epidermidis, isolate 17—E480, read-out: MIC",0.125 µg/mL
same,MIC,"[2]; Staphylococcus epidermidis, isolate 18—E475, read-out: MIC",0.125 µg/mL
same,MIC,"[2]; Staphylococcus epidermidis, isolate 19—E471, read-out: MIC",0.125 µg/mL
same,MIC,"[2]; Staphylococcus epidermidis, isolate 20—E458, read-out: MIC",0.125 µg/mL
same,MIC,"[2]; Staphylococcus epidermidis, isolate 21—E452, read-out: MIC",0.5 µg/mL
same,MIC,"[2]; Staphylococcus epidermidis, isolate 22—E450, read-out: MIC",0.125 µg/mL
same,MIC,"[2]; Staphylococcus epidermidis, isolate 23—E440, read-out: MIC",0.125 µg/mL
same,MIC,"[2]; Staphylococcus epidermidis, isolate 24—E446, read-out: MIC",< 0.0625 µg/mL
same,MIC,"[2]; Staphylococcus epidermidis, isolate 25—E444, read-out: MIC",0.25 µg/mL
same,MIC,"[2]; Staphylococcus epidermidis, n=25 per group, read-out: Median MIC",0.125 µg/mL
same,MIC50,"[2]; Staphylococcus epidermidis, 25 isolates, Summary of Results, read-out: MIC50",0.125 µg/mL
same,MIC90,"[2]; Staphylococcus epidermidis, 25 isolates, Summary of Results, read-out: MIC90",0.25 µg/mL
same,MIC,"[2]; Staphylococcus epidermidis, 25 isolates, Summary of Results, read-out: Median MIC",0.125 µg/mL
same,MIC50,[2]; n=25 per group,0.125 µg/mL
same,MIC90,[2]; n=25 per group,0.25 µg/mL
same,Range of MICs,[2]; n=25 per group,0.03125 to 0.5 µg/mL
